Data on two molecules can be found in US20150210796A1, “Novel Compound, Novel Polymer, Colorant Including the Same, Positive Photosensitive Resin Composition Including the Same, and Color Filter” (Samsung SDI Co., Ltd., priority 2014, published 2015).

The data set is described as follows: Solubility: dissolution state of compound in dilution solvent. It is filed as physicochemical. The conditions noted are these: agitated at 25° C. and 100 rpm for 1 hour; for Amount of dissolved compound, diluted solvent (Anone): 0.5 g compound added to Anone (cyclohexanone); for Amount of dissolved compound, diluted solvent (PGMEA): 0.5 g compound added to PGMEA. On the procedure:
0.5 g of each compound represented by Chemical Formulae 3-1 and 7-1 is respectively added to a dilution solvent (PGMEA, Anone, MeOH) to prepare each solution, the solution is agitated at 25° C. and 100 rpm for 1 hour with a mix rotor (MIXROTAR VMR-5, Luchi Deiseido Co., Ltd.) to examine dissolution state of the compound (the content of the dissolved compound), and the results are provided in the following Table 1. (Anone indicates cyclohexanone)

Consider `C=C(C)C(=O)OCCNS(=O)(=O)c1ccc(-c2c3ccc(=[N+](CC)CC)cc-3oc3cc(N(CC)CC)ccc23)c(S(=O)(=O)[O-])c1` [Chemical Formula 3-1], for which the “Amount of dissolved compound, diluted solvent (Anone)” value is on record as “equal to 0.1 wt %” and the “Amount of dissolved compound, diluted solvent (PGMEA)” value is listed as “to 0.1 wt %”.
As to `C=C(C)C(=O)OCCN(CCCCCCCCCCCCCCCC)S(=O)(=O)c1ccc(-c2c3ccc(=[N+](CC)CC)cc-3oc3cc(N(CC)CC)ccc23)c(S(=O)(=O)[O-])c1` [Chemical Formula 7-1], the “Amount of dissolved compound, diluted solvent (Anone)” value was determined as 3.0 wt % and the “Amount of dissolved compound, diluted solvent (PGMEA)” value was 0.1 wt %. Also, the “Amount of dissolved compound, diluted solvent (MeOH)” value (0.5 g compound added to MeOH) is reported as “equal to 10.0 wt %”.
